Results: US20110021567A1, “PREPARATION OF LENALIDOMIDE” (DR. REDDY'S LABORATORIES LTD., priority 2008, published 2011)

Assay: storage stability of the amorphous form (material remains amorphous)
Type: physicochemical
Conditions: five days at 0-5° C., packaged in a polyethylene bag

physical form on storage: remains amorphous
SMILES: Nc1cccc2c1CN(C1CCC(=O)NC1=O)C2=O (stereo not shown) [Example 8, 3-(4-amino-1-oxo-1,3-dihydro-2H-isoindol-2-yl)piperidine-2,6-dione]
